# Tests used:
# human H3 receptor = target: T1, human H3 receptor (Homo sapiens, UniProt Q9Y5N1); assay: Human H3 radioligand binding ([3H]-N-alpha-methylhistamine, SPA); settings: membranes of CHO cells expressing human H3 receptor; [3H]-N-alpha-methylhistamine about 1 nM
# T1 construct: expressed in transfected cells; membrane preparation
# Method: (§1) Methods: CHO cells stably expressing the human H3 receptor (GenBank: NM_007232) were harvested and cell pellets were frozen (−80° C.). Cell pellets were resuspended in 5 mM Tris-HCl, pH 7.5 with […] and a cocktail of protease inhibitors (Complete Protease Inhibitior Tablets, Roche Diagnostics). Cells were disrupted using a polytron cell homogenizer and the suspension was centrifuged at 1000×g for 10 minutes at 4° C. The pellet was discarded and the supernatant centrifuged at 40,000×g for 30 min at 4° C. This membrane pellet was washed in membrane buffer containing 50 mM Tris-HCl, pH 7.5 with 0.6 mM EDTA, 5 mM MgCl2 and protease inhibitors, recentrifuged as above and the final pellet resuspended in membrane buffer plus 250 mM sucrose and frozen at −80° C.
# (§2) Radioligand Binding. Membranes were resuspended in 50 mM Tris HCl (pH 7.4), 5 mM MgCl2, 0.1% BSA. The membrane suspensions (10 μg protein per well) were incubated in a 96 well microtiter plate with [^3H]-N-alpha-methylhistamine (approximately 1 nM final concentration), test compounds at various concentrations (0.01 nM-30 μM) and scintillation proximity beads (Perkin Elmer, FlashBlueGPCR Scintillating Beads) in a final volume of 80 μl for 4 hours at room temperature, protected from light. Non-specific binding was determined in the presence of 10 μM clobenpropit. Radioligand bound to receptor, and therefore in proximity to the scintillation beads, was measured using a MicroBeta scintillation counter.
# [1] = target: T2, rat histamine H3 receptor (Rattus norvegicus, UniProt Q9QYN8); assay: Rat H3 radioligand binding ([3H]-N-alpha-methylhistamine, SPA); settings: membranes of CHO-A3 cells expressing rat H3 receptor; [3H]-N-alpha-methylhistamine about 1 nM
# T2 construct: encoding the entire 445-amino-acid rat histamine H3 receptor; expressed in transfected cells; membrane preparation
# T2 sequence (Q9QYN8 whole entry): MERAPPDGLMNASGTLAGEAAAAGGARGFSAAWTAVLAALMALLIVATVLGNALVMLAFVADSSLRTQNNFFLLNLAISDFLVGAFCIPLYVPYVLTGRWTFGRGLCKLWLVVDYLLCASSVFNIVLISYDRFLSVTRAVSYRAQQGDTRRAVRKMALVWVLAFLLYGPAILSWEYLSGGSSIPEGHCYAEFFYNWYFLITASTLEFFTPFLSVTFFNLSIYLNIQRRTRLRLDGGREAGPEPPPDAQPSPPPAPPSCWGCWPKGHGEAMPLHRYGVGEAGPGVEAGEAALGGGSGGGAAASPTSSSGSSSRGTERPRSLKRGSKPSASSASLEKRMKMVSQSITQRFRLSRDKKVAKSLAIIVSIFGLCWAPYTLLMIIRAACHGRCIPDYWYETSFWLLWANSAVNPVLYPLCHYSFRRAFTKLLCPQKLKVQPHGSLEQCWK
# Source text: as §1, with “Cell line development and membrane preparation. The rat” for “Methods: CHO cells stably expressing the human”, “cDNA was PCR amplified from reverse-transcribed RNA pooled from rat thalamus, hypothalamus, striatum and prefrontal cortex with a sequence corresponding to by #338-1672 of Genbank file #NM_053506, encoding the entire 445-amino-acid rat histamine H3 receptor. This was engineered into the pIRES-neo3 mammalian expression vector, which was stably transfected into the CHO-A3 cell line (Euroscreen, Belgium), followed by clonal selection by limiting dilution. Cells” for “(GenBank: NM_007232)”
# as §2
# T1 sequence (Q9Y5N1 whole entry): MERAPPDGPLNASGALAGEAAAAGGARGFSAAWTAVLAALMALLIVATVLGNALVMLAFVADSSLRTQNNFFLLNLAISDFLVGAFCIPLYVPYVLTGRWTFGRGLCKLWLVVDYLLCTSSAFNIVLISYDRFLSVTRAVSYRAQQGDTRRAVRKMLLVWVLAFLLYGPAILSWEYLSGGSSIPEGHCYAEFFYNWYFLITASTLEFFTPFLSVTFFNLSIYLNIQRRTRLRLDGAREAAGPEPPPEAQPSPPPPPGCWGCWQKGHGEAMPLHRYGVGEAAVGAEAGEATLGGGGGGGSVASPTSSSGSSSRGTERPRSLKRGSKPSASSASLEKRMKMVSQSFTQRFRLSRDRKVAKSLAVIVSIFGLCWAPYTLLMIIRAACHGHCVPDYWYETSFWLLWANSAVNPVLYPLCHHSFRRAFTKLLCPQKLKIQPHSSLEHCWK
Compound,Ki (human H3 receptor) [nM],melting point [°C],Ki [1] [nM]
"Clc1ccc(-c2ccc3c(c2)CC2(CCN(C4CCC4)CC2)O3)nn1 [Example 15, 1′-Cyclobutyl-5-(6-chloropyridazin-3-yl)spiro[benzofuran-2(3H)-4′-piperidine]]",< 200,193 to 194,< 200
"O=c1ccc(-c2ccc3c(c2)CC2(CCN(C4CCC4)CC2)O3)n[nH]1 [Example 16, 1′-Cyclobutyl-5-(6-oxo-1,6-dihydropyridazin-3-yl) spiro[benzofuran-2(3H)-4′-piperidine]]",< 200,227 to 228,< 200
O=c1ccc(Oc2ccc3c(c2)CCC2(CCN(C4CCC4)CC2)O3)n[nH]1 [Example 18],< 200,233 to 235,< 200
O=c1cc(-c2ccc3c(c2)CCC2(CCN(C4CCC4)CC2)O3)cn[nH]1 [Example 19],< 200,216 to 219,< 200
Cn1nc(-c2ccc3c(c2)CCC2(CCN(C4CCC4)CC2)O3)ccc1=O [Example 20],< 200,147 to 149,< 200
O=c1ccc(-c2ccc3c(c2)CCC2(CCN(C4CCC4)CC2)O3)n[nH]1 [Example 21],< 200,273 to 275,< 200
Cn1nc(-c2ccc3c(c2)COC2(CCN(C4CCC4)CC2)O3)ccc1=O [Example 27],< 200,185 to 187,< 200
O=c1ccc(-c2ccc3c(c2)COC2(CCN(C4CCC4)CC2)O3)n[nH]1 [Example 28],< 200,273 to 275,< 200
Cc1cc2c(cc1-c1ccc(=O)[nH]n1)COC1(CCN(C3CCC3)CC1)O2 [Example 29],200 to 1000,230 to 232,200 to 1000
O=c1[nH]nc(-c2ccc3c(c2)COC2(CCN(C4CCC4)CC2)O3)c2ccccc12 [Example 32],< 200,258 to 259,< 200
O=c1cc(-c2ccccc2)c(-c2ccc3c(c2)COC2(CCN(C4CCC4)CC2)O3)n[nH]1 [Example 33],< 200,260 to 262,< 200
O=C1CCC(c2ccc3c(c2)COC2(CCN(C4CCC4)CC2)O3)=NN1 [Example 36],< 200,192 to 194,< 200

# Source: patent US8524713B2, “Substituted spirocyclic piperidine derivatives as histamine-3 (H3) receptor ligands” (Cephalon, Inc, priority 2008, dated 2013)
